Laboratory results: patent publication US12018033B2, “Inhibitors of protein arginine deiminases” (Forward Therapeutics, Inc., priority 2018, dated 2024)

Biological target: T1, Recombinant human PAD4 (2-663) (Homo sapiens, UniProt Q9UM07)
T1 construct: Recombinant human PAD4 (2-663) was expressed in E. coli; made in house; host or cells: E. coli
Assay: PAD4 Inhibition Assay
Assay type: biochemical
Details: 60 mins pre-incubation at RT; substrate BAEE with CaCl2; fluorescent signal (λex 405/λem 460)
Experimental: Protein: Recombinant human PAD4 (2-663) was expressed in E. coli as an N-terminal Strep-tag and C-terminal 6-his tag fusion protein. Protein was purified using Strep-tactin resin followed by size exclusion chromatography. Tags were not removed during purification. Activity of the protein was determined using ammonia quantification assay.
PAD4 enzyme (10 μL) was diluted to concentration of 75 nM in assay buffer A (100 mM HEPES, pH 8, 50 mM NaCl, 2 mM DTT, 0.6 mg/mL BSA and 0.5% DMSO) and added to wells containing 10 μL of various concentrations of test compound, or DMSO vehicle in buffer A with 1.5% final DMSO concentration in a Corning high volume 384 well black plate. Following 60 mins pre-incubation at RT with gentle shaking, the reaction was initiated by the addition of 10 μL of substrate buffer containing 3 mM N-α-benzoyl-L-arginine ethyl ester (BAEE) and 600 μM CaCl2) in assay buffer A. The reaction was stopped after 60 mins with the addition of 15 μL stop/detection buffer containing 7.5 mM phthalaldehyde, 50 mM EDTA and 7.5 mM DTT in assay buffer A. Quenched reactions were incubated at RT for 45 mins before measuring fluorescent signal (λex 405/λem 460) on an Envision plate reader (Perkin Elmer Life Sciences, Waltham, Mass., USA).

T1 sequence (Q9UM07 2-663): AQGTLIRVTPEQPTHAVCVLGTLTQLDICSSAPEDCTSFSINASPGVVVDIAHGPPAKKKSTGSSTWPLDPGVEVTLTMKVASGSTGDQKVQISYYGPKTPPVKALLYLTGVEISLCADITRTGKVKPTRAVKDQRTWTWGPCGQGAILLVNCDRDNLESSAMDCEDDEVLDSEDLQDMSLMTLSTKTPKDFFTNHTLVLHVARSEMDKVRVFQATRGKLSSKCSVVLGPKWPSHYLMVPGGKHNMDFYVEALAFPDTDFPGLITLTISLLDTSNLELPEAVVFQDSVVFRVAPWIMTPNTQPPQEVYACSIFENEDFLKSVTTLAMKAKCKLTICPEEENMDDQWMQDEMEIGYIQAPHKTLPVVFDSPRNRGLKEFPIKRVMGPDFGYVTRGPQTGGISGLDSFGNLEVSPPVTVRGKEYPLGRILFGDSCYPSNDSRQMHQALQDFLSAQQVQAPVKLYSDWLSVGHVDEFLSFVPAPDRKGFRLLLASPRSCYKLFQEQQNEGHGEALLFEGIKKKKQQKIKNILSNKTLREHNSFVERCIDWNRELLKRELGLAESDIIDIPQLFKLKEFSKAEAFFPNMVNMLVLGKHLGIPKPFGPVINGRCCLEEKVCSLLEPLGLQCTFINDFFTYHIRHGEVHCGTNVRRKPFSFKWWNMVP

| SMILES | IC50 |
| --- | --- |
| N[C@H]1CCN(C(=O)c2cc3cc(Cl)c(F)c(F)c3[nH]2)C1 [Example 27, (S)-(3-Aminopyrrolidin-1-yl)(5-chloro-6,7-difluoro-1H-indol-2-yl)methanone] | ≤ 1 µM |
| C[C@@H]1CNC[C@H]1NC(=O)c1cc2cc(Cl)c(F)c(F)c2[nH]1 [Example 13, 5-Chloro-6,7-difluoro-N-((3S,4R)-4-methylpyrrolidin-3-yl)-1H-indole-2-carboxamide] | 1 to 10 µM |
| N[C@@H]1CCCN(C(=O)c2cc3cc(Cl)c(F)c(F)c3[nH]2)C1 [Example 38, (R)-(3-Aminopiperidin-1-yl)(5-chloro-6,7-difluoro-1H-indol-2-yl)methanone] | 10 to 100 µM |
| O=C(c1cc2cc(Cl)c(F)c(F)c2[nH]1)N1C[C@H]2CNC[C@H]21 [Example 56, (1R,5S)-3,6-diazabicyclo[3.2.0]heptan-6-yl(5-chloro-6,7-difluoro-1H-indol-2-yl)methanone] | 1 to 10 µM |
| N[C@@H]1CCN(C(=O)c2cc3cc(Br)ccc3[nH]2)C1 [Example 48, (R)-(3-Aminopyrrolidin-1-yl)(5-bromo-1H-indol-2-yl)methanone] | 1 to 10 µM |
| O=C(c1cc2cc(Cl)c(F)c(F)c2[nH]1)N1CC[C@@H]2CNC[C@@H]21 [Example 58, (5-chloro-6,7-difluoro-1H-indol-2-yl)((3aR,6aR)-hexahydropyrrolo[3,4-b]pyrrol-1(2H)-yl)methanone] | 10 to 100 µM |
| N[C@H]1CN(C(=O)c2cc3cc(Br)c(F)c(F)c3[nH]2)C[C@@H]1O [Example 65, ((3S,4S)-3-amino-4-hydroxypyrrolidin-1-yl)(5-bromo-6,7-difluoro-1H-indol-2-yl)methanone] | 1 to 10 µM |
| O=C(N[C@H]1CCNC1)c1cc2cc(Cl)c(F)c(F)c2[nH]1 [Example 26, (S)-5-Chloro-6,7-difluoro-N-(pyrrolidin-3-yl)-1H-indole-2-carboxamide] | 1 to 10 µM |
| CC(C)(C)[C@@H](CN)NC(=O)c1cc2cc(Cl)c(F)c(F)c2[nH]1 [Example 28, (S)-N-(1-Amino-3,3-dimethylbutan-2-yl)-5-chloro-6,7-difluoro-1H-indole-2-carboxamide] | 10 to 100 µM |
| O=C(NC[C@@H]1CCNC1)c1cc2cc(Cl)c(F)c(F)c2[nH]1 [Example 63, (R)-5-chloro-6,7-difluoro-N-(pyrrolidin-3-ylmethyl)-1H-indole-2-carboxamide] | 10 to 100 µM |
| N[C@H]1CNC[C@@H]1NC(=O)c1cc2cc(Cl)c(F)c(F)c2[nH]1 [Example 30, N-((3S,4S)-4-Aminopyrrolidin-3-yl)-5-chloro-6,7-difluoro-1H-indole-2-carboxamide] | 10 to 100 µM |
| O=C(NC[C@H]1CCNC1)c1cc2cc(Cl)c(F)c(F)c2[nH]1 [Example 62, (S)-5-chloro-6,7-difluoro-N-(pyrrolidin-3-ylmethyl)-1H-indole-2-carboxamide] | 10 to 100 µM |
| O=C(N[C@@H]1CCNC1)c1cc2cc(Cl)c(F)c(F)c2[nH]1 [Example 25, (R)-5-Chloro-6,7-difluoro-N-(pyrrolidin-3-yl)-1H-indole-2-carboxamide] | 10 to 100 µM |
| O=C(N[C@H]1CCCNC1)c1cc2cc(Cl)c(F)c(F)c2[nH]1 [Example 39, (S)-5-Chloro-6,7-difluoro-N-(piperidin-3-yl)-1H-indole-2-carboxamide] | 10 to 100 µM |
| O=C(c1cc2cc(Cl)c(F)c(F)c2[nH]1)N1C[C@H]2CNC[C@H]2C1 [Example 59, (5-chloro-6,7-difluoro-1H-indol-2-yl)((3aR,6aS)-hexahydropyrrolo[3,4-c]pyrrol-2(1H)-yl)methanone] | 10 to 100 µM |
| NC1CN(C(=O)c2cc3cc(Cl)c(F)c(F)c3[nH]2)C1 [Example 24, (3-Aminoazetidin-1-yl)(5-chloro-6,7-difluoro-1H-indol-2-yl)methanone] | 1 to 10 µM |
| N[C@@H]1CCN(C(=O)c2cc3cc(F)c(F)c(F)c3[nH]2)C1 [Example 3, (R)-(3-Aminopyrrolidin-1-yl)(5,6,7-trifluoro-1H-indol-2-yl)methanone] | 1 to 10 µM |
| C[C@H](CN)NC(=O)c1cc2cc(Cl)c(F)c(F)c2[nH]1 [Example 21, (R)-N-(1-Aminopropan-2-yl)-5-chloro-6,7-difluoro-1H-indole-2-carboxamide] | 10 to 100 µM |
| CC(C)C[C@@H](CN)NC(=O)c1cc2cc(Cl)c(F)c(F)c2[nH]1 [Example 19, (S)-N-(1-Amino-4-methylpentan-2-yl)-5-chloro-6,7-difluoro-1H-indole-2-carboxamide] | 10 to 100 µM |
| N[C@@H]1CCN(C(=O)c2cc3cc(Cl)cc(F)c3[nH]2)C1 [Example 2, (R)-(3-Aminopyrrolidin-1-yl)(5-chloro-7-fluoro-1H-indol-2-yl)methanone] | ≤ 1 µM |

| SMILES | IC50 |
| --- | --- |
| N[C@H]1CN(C(=O)c2cc3cc(Cl)c(F)c(F)c3[nH]2)C[C@@H]1F [Example 37, ((3S,4S)-3-Amino-4-fluoropyrrolidin-1-yl)(5-chloro-6,7-difluoro-1H-indol-2-yl)methanone] | 1 to 10 µM |
| C[C@H]1CNC[C@H]1NC(=O)c1cc2cc(Cl)c(F)c(F)c2[nH]1 [Example 14, 5-Chloro-6,7-difluoro-N-((3S,4S)-4-methylpyrrolidin-3-yl)-1H-indole-2-carboxamide] | ≤ 1 µM |
| N[C@@H]1CCN(C(=O)c2cc3cc(Cl)cc(Br)c3[nH]2)C1 [Example 47, (R)-(3-Aminopyrrolidin-1-yl)(7-bromo-5-chloro-1H-indol-2-yl)methanone] | 10 to 100 µM |
| O=C(N[C@H]1CNC[C@H]1O)c1cc2cc(Cl)c(F)c(F)c2[nH]1 [Example 17, 5-Chloro-6,7-difluoro-N-((3S,4R)-4-hydroxypyrrolidin-3-yl)-1H-indole-2-carboxamide] | 10 to 100 µM |
| C[C@@H](CN)NC(=O)c1cc2cc(Cl)c(F)c(F)c2[nH]1 [Example 9, (S)-N-(1-Aminopropan-2-yl)-5-chloro-6,7-difluoro-1H-indole-2-carboxamide] | ≤ 1 µM |
| O=C(c1cc2cc(Cl)c(F)c(F)c2[nH]1)N1CC2(CNC2)C1 [Example 60, (5-chloro-6,7-difluoro-1H-indol-2-yl)(2,6-diazaspiro[3.3]heptan-2-yl)methanone] | 10 to 100 µM |
| C[C@H]1CCNC[C@@H]1NC(=O)c1cc2cc(Cl)c(F)c(F)c2[nH]1 [Example 41, 5-Chloro-6,7-difluoro-N-((3R,4S)-4-methylpiperidin-3-yl)-1H-indole-2-carboxamide] | 10 to 100 µM |
| N[C@H]1CN(C(=O)c2cc3cc(Cl)c(F)c(F)c3[nH]2)CC[C@H]1F [Example 43, ((3S,4R)-3-Amino-4-fluoropiperidin-1-yl)(5-chloro-6,7-difluoro-1H-indol-2-yl)methanone] | > 100 µM |
| CN(C(=O)c1cc2cc(Cl)c(F)c(F)c2[nH]1)C1CNC1 [Example 52, N-(azetidin-3-yl)-5-chloro-6,7-difluoro-N-methyl-1H-indole-2-carboxamide] | 10 to 100 µM |
| N[C@H]1CN(C(=O)c2cc3cc(Cl)c(F)c(F)c3[nH]2)C[C@H]1F [Example 7, ((3S,4R)-3-Amino-4-fluoro-pyrrolidin-1-yl)-(5-chloro-6,7-difluoro-1H-indol-2-yl)-methanone] | 10 to 100 µM |
| N[C@@H]1CCN(C(=O)c2cc3cc(Br)c(F)c(F)c3[nH]2)C1 [Example 5, (R)-(3-Aminopyrrolidin-1-yl)(5-bromo-6,7-difluoro-1H-indol-2-yl)methanone] | ≤ 1 µM |
| CC1(NC(=O)c2cc3cc(Cl)c(F)c(F)c3[nH]2)CNC1 [Example 53, 5-chloro-6,7-difluoro-N-(3-methylazetidin-3-yl)-1H-indole-2-carboxamide] | 10 to 100 µM |
| O=C(N[C@@H]1CNC[C@@H]1O)c1cc2cc(Cl)c(F)c(F)c2[nH]1 [Example 16, 5-Chloro-6,7-difluoro-N-((3R,4S)-4-hydroxypyrrolidin-3-yl)-1H-indole-2-carboxamide] | 1 to 10 µM |
| O=C(c1cc2cc(Cl)c(F)c(F)c2[nH]1)N1CC2(CCNC2)C1 [Example 61, (5-chloro-6,7-difluoro-1H-indol-2-yl)(2,6-diazaspiro[3.4]octan-2-yl)methanone] | 10 to 100 µM |
| NCC1(NC(=O)c2cc3cc(Cl)c(F)c(F)c3[nH]2)COC1 [Example 12, N-(3-(Aminomethyl)oxetan-3-yl)-5-chloro-6,7-difluoro-1H-indole-2-carboxamide] | 10 to 100 µM |
| CO[C@H]1CNC[C@@H]1NC(=O)c1cc2cc(Cl)c(F)c(F)c2[nH]1 [Example 33, 5-Chloro-6,7-difluoro-N-((3S,4S)-4-methoxypyrrolidin-3-yl)-1H-indole-2-carboxamide] | 10 to 100 µM |
| CO[C@@H]1CNC[C@H]1NC(=O)c1cc2cc(Cl)c(F)c(F)c2[nH]1 [Example 34, 5-Chloro-6,7-difluoro-N-((3R,4R)-4-methoxypyrrolidin-3-yl)-1H-indole-2-carboxamide] | 10 to 100 µM |
| NCC(NC(=O)c1cc2cc(Cl)c(F)c(F)c2[nH]1)C1CC1 (stereo not drawn) [Example 11, N-(2-Amino-1-cyclopropylethyl)-5-chloro-6,7-difluoro-1H-indole-2-carboxamide] | 10 to 100 µM |
| N[C@@H]1CCN(C(=O)c2cc3cc(Cl)ccc3[nH]2)C1 [Example 8, (R)-(3-Aminopyrrolidin-1-yl)(5-chloro-1H-indol-2-yl)methanone] | 1 to 10 µM |
